We go through two molecules from patent US7528159B2, “5-aryl pyridines as 11-beta inhibitors for the treatment of diabetes” (Hoffmann-La Roche Inc., priority 2004, dated 2009).

The test concerns the target T1, human 11beta-HSD1 (Homo sapiens, UniProt P28845).
T1 construct: made in house; host or cells: HEK293 cells (ATCC CRL-1573), transient transfection with lipofectamine; microsomal fraction used
Kind of test: Microsome assay (cortisone to cortisol conversion, ELISA). It counts as biochemical. The following applies: microsomes from HEK293 cells transiently expressing human 11beta-HSD1; 60 min, 37° C.; read-out: h 11-beta-HSD 1 IC50. The protocol: The cDNA encoding the human 11beta-HSD1 protein was cloned into the expression vector pcDNA3 (Stratagene). This construct (for details see Alex Odermatt et al.; J Biol. Chem., 1999, Vol. 274, Issue 40, 28762-28770) was used to transiently express the protein in HEK293 cells (ATCC number: CRL-1573, described in Graham, F. L., Smiley, J., Russell, W. C., Nairn, R.; (1977)) using lipofectamine. 48 h after transfection cells were washed twice with ice-cold PBS (Phosphate buffered Saline). To 1 volume of cell suspension in PBS 2 volumes of ice-cold lysis buffer (50 mM Tris; pH7.5; 1 mM EDTA; 100 mM NaCl) were added. The cells were lysed by Potter-homogenization (20 strokes). The resulting homogenate was sonicated with a tip sonicator (10% output; 2×30 sec.) and cleared by a low speed centrifugation (10 min×9000 g; 4° C.). The microsomal fraction was collected by a high speed centrifugation (60 min×110'000 g). […]
Microsomes isolated from HEK293 cells transiently expressing human 11beta-HSD1 (for details see above) were incubated in assay buffer (100 mM NaCl; 1 mM EDTA; 1 mM EGTA; 1 mM MgCl; 250 mM Sucrose; 20 mM Tris pH 7.4; Cortisone 50-200 nM and NADPH 1 mM) together with different concentrations of test substances. […] The amount of Cortisol produced in this assay was determined using a commercially available, ELISA-based Cortisol-detection kit (Distributed by Assay Design, Inc.). […]

T1 sequence (P28845 whole entry): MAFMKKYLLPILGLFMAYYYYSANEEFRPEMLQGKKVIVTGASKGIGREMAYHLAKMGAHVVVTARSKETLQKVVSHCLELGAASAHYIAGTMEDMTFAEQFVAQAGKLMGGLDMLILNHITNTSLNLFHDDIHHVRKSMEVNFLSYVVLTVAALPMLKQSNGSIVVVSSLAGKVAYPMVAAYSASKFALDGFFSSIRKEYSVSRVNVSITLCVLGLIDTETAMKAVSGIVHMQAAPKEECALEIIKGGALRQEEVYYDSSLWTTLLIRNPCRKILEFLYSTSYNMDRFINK

For `Cc1c(Cl)cccc1S(=O)(=O)Nc1ccc(-c2ccccc2Cl)cn1` [Example 2, 3-chloro-N-[5-(2-chloro-phenyl)-pyridin-2-yl]-2-methyl-benzenesulfonamide], the IC50 (as a rule, the point on the concentration scale where inhibition reaches its midpoint) turned out to be 3 nM.
For `Cc1cc(F)ccc1-c1ccc(NS(=O)(=O)c2cccc(Cl)c2)nc1C` [Example 110, 3-Chloro-N-[5-(4-fluoro-2-methyl-phenyl)-6-methyl-pyridin-2-yl]-benzenesulfonamide], the concentration for half-maximal inhibition (IC50) is 12 nM.
